Source: patent US12398132B2, “Derivatives of 4-(imidazo[1,2-a]pyridin-3-yl)-n-(pyridinyl)pyrimidin-2-amine as therapeutic agents” (AUCENTRA THERAPEUTICS PTY LTD, priority 2019, dated 2025)
Substitutions are numbered along the chain they refer to.

How the values were obtained:
FLT3(ITD) = target: T1, FLT3(ITD) (Homo sapiens, UniProt P36888); test: ADP Glo kinase assay, FLT3(ITD); assay type: biochemical; conditions: apparent Ki calculated from Km (ATP) and IC50, read-out: FLT3 inhibition Ki
T1 sequence (P36888 1-993): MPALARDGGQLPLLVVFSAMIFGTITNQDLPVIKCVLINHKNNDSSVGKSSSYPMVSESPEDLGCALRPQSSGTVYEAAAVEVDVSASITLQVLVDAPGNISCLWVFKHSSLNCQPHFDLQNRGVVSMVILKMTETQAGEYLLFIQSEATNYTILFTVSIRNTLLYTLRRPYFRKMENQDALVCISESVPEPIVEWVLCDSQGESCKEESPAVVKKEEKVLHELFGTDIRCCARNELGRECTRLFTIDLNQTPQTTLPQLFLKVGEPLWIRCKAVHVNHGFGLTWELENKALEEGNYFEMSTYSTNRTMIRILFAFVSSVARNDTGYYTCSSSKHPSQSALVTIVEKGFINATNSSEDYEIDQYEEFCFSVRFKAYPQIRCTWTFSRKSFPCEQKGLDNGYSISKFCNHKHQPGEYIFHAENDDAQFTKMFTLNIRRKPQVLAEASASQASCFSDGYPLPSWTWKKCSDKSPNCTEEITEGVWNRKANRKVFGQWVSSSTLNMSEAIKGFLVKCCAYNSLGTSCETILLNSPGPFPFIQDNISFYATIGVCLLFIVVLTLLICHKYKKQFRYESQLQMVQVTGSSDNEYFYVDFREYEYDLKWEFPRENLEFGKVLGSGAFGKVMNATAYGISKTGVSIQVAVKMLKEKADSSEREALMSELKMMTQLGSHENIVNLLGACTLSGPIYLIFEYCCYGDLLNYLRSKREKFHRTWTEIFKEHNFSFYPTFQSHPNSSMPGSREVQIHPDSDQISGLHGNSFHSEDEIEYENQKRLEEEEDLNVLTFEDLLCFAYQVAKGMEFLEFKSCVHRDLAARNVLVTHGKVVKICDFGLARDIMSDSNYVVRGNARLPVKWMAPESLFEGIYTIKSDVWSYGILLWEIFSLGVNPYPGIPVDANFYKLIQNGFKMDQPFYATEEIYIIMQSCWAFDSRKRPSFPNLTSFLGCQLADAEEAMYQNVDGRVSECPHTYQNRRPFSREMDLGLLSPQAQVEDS

U937 = test: Proliferation assay (resazurin/MTT), U937; assay type: cell-based; conditions: Homo sapiens, U-937, read-out: 72 h Growth inhibition GI50, U937 cells
MV-4-11 = test: Proliferation assay (resazurin/MTT), MV-4-11; assay type: cell-based; conditions: Homo sapiens, MV4-11, read-out: 72 h Growth inhibition GI50, MV-4-11 cells
FLT3(D835Y) = target: T2, FLT3(D835Y) (Homo sapiens, UniProt P36888, D835Y); test: ADP Glo kinase assay, FLT3(D835Y); assay type: biochemical; conditions: apparent Ki calculated from Km (ATP) and IC50, read-out: FLT3 inhibition Ki
T2 sequence (P36888 27-993 D835Y): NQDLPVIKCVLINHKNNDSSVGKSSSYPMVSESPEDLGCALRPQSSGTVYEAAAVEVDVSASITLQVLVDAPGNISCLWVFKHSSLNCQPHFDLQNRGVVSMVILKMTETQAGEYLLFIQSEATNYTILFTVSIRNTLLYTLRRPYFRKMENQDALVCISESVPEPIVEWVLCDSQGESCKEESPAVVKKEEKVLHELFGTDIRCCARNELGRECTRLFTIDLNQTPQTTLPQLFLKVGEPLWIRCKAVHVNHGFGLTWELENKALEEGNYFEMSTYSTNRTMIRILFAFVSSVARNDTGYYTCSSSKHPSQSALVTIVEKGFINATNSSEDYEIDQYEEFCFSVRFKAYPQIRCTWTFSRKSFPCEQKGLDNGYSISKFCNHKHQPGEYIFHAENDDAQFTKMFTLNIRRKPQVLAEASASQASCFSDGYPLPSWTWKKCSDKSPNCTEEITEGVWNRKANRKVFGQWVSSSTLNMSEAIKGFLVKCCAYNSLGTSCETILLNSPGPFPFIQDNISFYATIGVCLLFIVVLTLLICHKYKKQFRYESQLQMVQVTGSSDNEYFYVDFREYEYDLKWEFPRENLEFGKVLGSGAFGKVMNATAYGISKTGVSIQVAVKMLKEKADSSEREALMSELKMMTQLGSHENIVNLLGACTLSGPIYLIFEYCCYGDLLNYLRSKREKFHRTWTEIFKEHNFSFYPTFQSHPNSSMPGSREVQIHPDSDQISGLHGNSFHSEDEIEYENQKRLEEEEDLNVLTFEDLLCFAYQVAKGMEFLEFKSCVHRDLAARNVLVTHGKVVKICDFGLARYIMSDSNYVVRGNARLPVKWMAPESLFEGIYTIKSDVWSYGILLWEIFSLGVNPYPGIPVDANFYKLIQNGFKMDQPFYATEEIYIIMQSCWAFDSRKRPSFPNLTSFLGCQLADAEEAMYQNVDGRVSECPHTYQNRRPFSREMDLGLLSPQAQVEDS

FLT3(WT) = target: T3, FLT3(WT) (Homo sapiens, UniProt P36888); test: ADP Glo kinase assay, FLT3(WT); assay type: biochemical; conditions: apparent Ki calculated from Km (ATP) and IC50, read-out: FLT3 inhibition Ki
T3 sequence (P36888 27-993): T2 sequence (P36888 27-993 D835Y) with Y809D
Procedure: Inhibition of FLT3(WT), FLT3(ITD) and FLT3(D835Y) and CDKs were determined using ADP Glo Kinase assays (Promega Corporation, Madison, WI, USA). […] The kinase reactions are run for an optimised time period (FLT3-WT: 120 min, FLT3-ITD: 80 min, FLT3-D835Y: 100 min) at room temperature and then the reaction was stopped by adding 5 μL of ADP Glo reagent. […] Positive and negative controls were performed in 0.5% DMSO in the presence and absence of each FLT3 kinase, respectively. […] Half-maximal inhibition (IC50) values were calculated using a 4-parameter logistic non-linear regression model with Graphpad prism (Version 6.0). Apparent inhibition constants (Ki) values were calculated from Km (ATP) and IC50 values for the respective kinases.

CDK2E1 = CDK2E1 (Homo sapiens, UniProt P24941); conditions: 1 µM
CDK9/CyclinT1 = CDK9/CyclinT1 (Homo sapiens, UniProt P50750); test: ADP Glo kinase assay, CDK9/CyclinT1; assay type: biochemical; conditions: CDK9T1; apparent Ki calculated from Km (ATP) and IC50; read-out: CDK inhibition Ki
Sequence of CDK9/CyclinT1 (P50750 whole entry, species assumed): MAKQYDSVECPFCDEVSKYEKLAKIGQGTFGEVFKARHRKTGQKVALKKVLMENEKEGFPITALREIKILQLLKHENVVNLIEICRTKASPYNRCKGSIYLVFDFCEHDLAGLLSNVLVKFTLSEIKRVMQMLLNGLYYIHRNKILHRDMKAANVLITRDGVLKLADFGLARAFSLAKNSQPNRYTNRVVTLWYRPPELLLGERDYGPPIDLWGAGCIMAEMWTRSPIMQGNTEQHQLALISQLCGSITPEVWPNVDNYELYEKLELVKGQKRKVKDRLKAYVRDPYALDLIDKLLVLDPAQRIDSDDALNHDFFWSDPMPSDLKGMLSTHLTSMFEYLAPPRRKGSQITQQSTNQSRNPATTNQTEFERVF
Sequence of CDK9/CyclinT1 (O60563 whole entry partner, species assumed): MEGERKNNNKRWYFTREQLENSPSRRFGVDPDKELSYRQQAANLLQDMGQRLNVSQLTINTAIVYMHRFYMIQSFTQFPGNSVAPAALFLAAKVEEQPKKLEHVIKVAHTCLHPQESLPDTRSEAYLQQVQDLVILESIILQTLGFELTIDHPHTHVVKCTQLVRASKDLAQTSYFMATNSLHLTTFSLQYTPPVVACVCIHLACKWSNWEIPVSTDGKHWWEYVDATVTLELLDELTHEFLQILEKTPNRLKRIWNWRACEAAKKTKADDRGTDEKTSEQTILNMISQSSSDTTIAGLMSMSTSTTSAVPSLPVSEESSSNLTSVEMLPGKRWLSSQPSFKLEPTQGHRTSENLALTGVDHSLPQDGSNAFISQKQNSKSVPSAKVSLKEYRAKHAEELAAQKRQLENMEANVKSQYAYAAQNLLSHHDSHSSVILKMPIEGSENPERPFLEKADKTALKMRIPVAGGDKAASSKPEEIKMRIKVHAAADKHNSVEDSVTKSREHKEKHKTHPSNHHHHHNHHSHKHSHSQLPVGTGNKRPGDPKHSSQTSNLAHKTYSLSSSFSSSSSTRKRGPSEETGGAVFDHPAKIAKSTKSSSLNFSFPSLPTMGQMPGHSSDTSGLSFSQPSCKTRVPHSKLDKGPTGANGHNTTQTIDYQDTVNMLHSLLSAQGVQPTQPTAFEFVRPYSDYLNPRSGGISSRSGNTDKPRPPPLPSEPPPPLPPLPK
Procedure: Inhibition of FLT3(WT), FLT3(ITD) and FLT3(D835Y) and CDKs were determined using ADP Glo Kinase assays (Promega Corporation, Madison, WI, USA). […] Similarly, kinase reaction for CDK4/D1 and CDK6/D3 was performed with reaction buffer (40 nM Tris base pH 7.5, 20 mM MgCl2, 0.4 mM DTT), 0.1 mg/ml BSA and RB-CTF substrate (retinoblastoma protein1 C-terminal fraction). For CDK9/CyclinT1, the kinase reaction was performed with the standard assay buffer and Kinase Dilution Buffer and RBER-IRStide substrate. Half-maximal inhibition (IC50) values were calculated using a 4-parameter logistic non-linear regression model with Graphpad prism (Version 6.0). Apparent inhibition constants (Ki) values were calculated from Km (ATP) and IC50 values for the respective kinases.

Compound: CC(=O)N1CCN(c2ccc(Nc3nccc(-c4cnc5ccc(-c6cc[nH]n6)cn45)n3)nc2)CC1 [Cmpd 57, 1-(4-(6-((4-(6-(1H-Pyrazol-3-yl)imidazo[1,2-a]pyridin-3-yl)pyrimidin-2-yl)amino)pyridin-3-yl)piperazin-1-yl)ethan-1-one]
- Ki (FLT3(ITD)): 6 nM
- GI50 (U937): 728 nM
- GI50 (MV-4-11): 4 nM

Compound: CCC(=O)N1CCN(c2ccc(Nc3nccc(-c4cnc5ccccn45)n3)nc2)CC1 [Cmpd 56, 1-(4-(6-((4-(Imidazo[1,2-a]pyridin-3-yl)pyrimidin-2-yl)amino)pyridin-3-yl)piperazin-1-yl)propan-1-one]
- Ki (FLT3(ITD)): 16 nM
- GI50 (U937): 339 nM
- GI50 (MV-4-11): 22 nM

Compound: CC(=O)N1CCN(c2ccc(Nc3nccc(-c4cnc5ccc(-c6cnn(C7CCN(C(=O)OC(C)(C)C)CC7)c6)cn45)n3)nc2)CC1 [Cmpd 60, Tert-butyl 4-(4-(3-(2-((5-(4-acetylpiperazin-1-yl)pyridin-2-yl)amino)pyrimidin-4-yl)imidazo[1,2-a]pyridin-6-yl)-1H-pyrazol-1-yl)piperidine-1-carboxylate]
- Ki (FLT3(ITD)): 84 nM
- GI50 (U937): 243 nM
- GI50 (MV-4-11): 19 nM

Compound: CN1CCN(c2ccc(Nc3nccc(-c4cnc5ccc(-c6cnn(C)c6)cn45)n3)nc2)CC1 [Cmpd 62, 4-(6-(1-Methyl-1H-pyrazol-4-yl)imidazo[1,2-a]pyridin-3-yl)-N-(5-(4-methylpiperazin-1-yl)pyridin-2-yl)pyrimidin-2-amine]
- Ki (FLT3(ITD)): 29 nM
- GI50 (U937): 773 nM
- GI50 (MV-4-11): 6 nM

Compound: CC(C)(C)OC(=O)N1CC=C(c2ccc(Nc3nccc(-c4cnc5ccccn45)n3)nc2)CC1 [Cmpd 64, Tert-butyl 6-((4-(imidazo[1,2-a]pyridin-3-yl)pyrimidin-2-vi)amino)-3′,6′-dihydro-[3,4′-bipyridine]-1′(2′H)-carboxylate]
- Ki (FLT3(ITD)): 308 nM
- GI50 (U937): 367 nM
- GI50 (MV-4-11): 152 nM

Compound: CN1CCN(c2ccc(Nc3nccc(-c4cnc5ccc(-c6cccnc6)cn45)n3)nc2)CC1 [Cmpd 65, N-(5-(4-Methylpiperazin-1-yl)pyridin-2-yl)-4-(6-(pyridin-3-yl)imidazo[1,2-a]pyridin-3-yl)pyrimidin-2-amine]
- Ki (FLT3(ITD)): 30 nM
- GI50 (U937): 382 nM
- GI50 (MV-4-11): 32 nM

Compound: CC(=O)N1CCN(c2ccc(Nc3nccc(-c4cnc5ccc(C6=CCN(C(=O)OC(C)(C)C)CC6)cn45)n3)nc2)CC1 [Cmpd 63, Tert-butyl 4-(3-(2-((5-(4-acetylpiperazin-1-yl)pyridin-2-yl)amino)pyrimidin-4-yl)imidazo[1,2-a]pyridin-6-yl)-3,6-dihydropyridine-1(2H)-carboxylate]
- Ki (FLT3(ITD)): 132 nM
- GI50 (U937): 436 nM
- GI50 (MV-4-11): 35 nM

Compound: CCN1CCN(Cc2ccc(Nc3ncc(F)c(-c4cnc5ccc(-c6ccccc6)cn45)n3)nc2)CC1 [Cmpd 68, N-(5-((4-Ethylpiperazin-1-yl)methyl)pyridin-2-yl)-5-fluoro-4-(6-phenylimidazo[1,2-a]pyridin-3-yl)pyrimidin-2-amine]
- Ki (FLT3(ITD)): 70 nM
- GI50 (U937): 600 nM
- GI50 (MV-4-11): 117 nM

Compound: CN(C)C1CCN(c2ccc(Nc3ncc(F)c(-c4cnc5ccc(-c6ccccc6)cn45)n3)nc2)CC1 [Cmpd 69, N-(5-(4-(Dimethylamino)piperidin-1-yl)pyridin-2-yl)-5-fluoro-4-(6-phenylimidazo[1,2-a]pyridin-3-yl)pyrimidin-2-amine]
- Ki (FLT3(ITD)): 16 nM
- GI50 (U937): 946 nM
- GI50 (MV-4-11): 18 nM

Compound: Clc1ccc(Nc2nccc(-c3cnc4ccccn34)n2)nc1 [Cmpd 52, N-(5-Chloropyridin-2-yl)-4-(imidazo[1,2-a]pyridin-3-yl)pyrimidin-2-amine]
- Ki (FLT3(D835Y)): 584 nM
- Ki (FLT3(ITD)): 421 nM
- Ki (FLT3(WT)): > 500 nM
- GI50 (U937): 691 nM
- GI50 (MV-4-11): 213 nM
- activity (CDK2E1): 52%

Compound: CC(=O)N1CCN(c2ccc(Nc3nccc(-c4cnc5ccc(-c6ccc(C)o6)cn45)n3)nc2)CC1 [Cmpd 61, 1-(4-(6-((4-(6-(5-Methylfuran-2-yl)imidazo[1,2-a]pyridin-3-yl)pyrimidin-2-yl)amino)pyridin-3-yl)piperazin-1-yl)ethan-1-one]
- Ki (FLT3(ITD)): 4 nM
- GI50 (U937): 199 nM
- GI50 (MV-4-11): < 0.1 nM

Compound: CN1CCN(c2ccc(Nc3nccc(-c4cnc5ccc(-c6cncnc6)cn45)n3)nc2)CC1 [Cmpd 66, N-(5-(4-Methylpiperazin-1-yl)pyridin-2-yl)-4-(6-(pyrimidin-5-yl)imidazo[1,2-a]pyridin-3-yl)pyrimidin-2-amine]
- Ki (FLT3(ITD)): 116 nM
- GI50 (U937): 1090 nM
- Ki (CDK9/CyclinT1): 345 nM
- GI50 (MV-4-11): 174 nM
- activity (CDK2E1): 80%

Compound: Ic1ccc(Nc2nccc(-c3cnc4ccccn34)n2)nc1 [Cmpd 53, 4-(Imidazo[1,2-a]pyridin-3-yl)-N-(5-iodopyridin-2-yl)pyrimidin-2-amine]
- Ki (FLT3(D835Y)): > 500 nM
- Ki (FLT3(ITD)): > 500 nM
- Ki (FLT3(WT)): > 500 nM
- GI50 (U937): 2500 nM
- GI50 (MV-4-11): 382 nM
- activity (CDK2E1): 99%

Compound: CC(=O)N1CCN(c2ccc(Nc3nccc(-c4cnc5ccc(-c6ccn(C)n6)cn45)n3)nc2)CC1 [Cmpd 58, 1-(4-(6-((4-(6-(1-Methyl-1H-pyrazol-3-yl)imidazo[1,2-a]pyridin-3-yl)pyrimidin-2-yl)amino)pyridin-3-yl)piperazin-1-yl)ethan-1-one]
- Ki (FLT3(ITD)): 49 nM
- GI50 (U937): 206 nM
- GI50 (MV-4-11): 9 nM
